System: COS cells
Test: Intracellular/extracellular pyrophosphate levels in transfected COS cells
Assay type: cell-based
Conditions: overexpression in tissue culture cells
Description: Several protocols have previously been developed for measuring inorganic pyrophosphate in biological samples and any number of these are used in the in vitro assay. Some measure pyrophosphate hydrolysis to orthophosphate by calorimetry (McCarty et al., J. Lab. Clin. Med., 78:216–29 (1971)), while others use labeled substrates that couple with pyrophosphate in enzymatic reactions to determine pyrophosphate levels radiometrically (Cheung and Suhadolnik, Anal. Biochem., 83:61–3 (1977); Caswell and Russell, Biochim. Biophys. Acta, 847:40–7 (1985)). In another type of protocols, inorganic pyrophosphate is subjected to a series of coupled enzymatic phosphorylation and reduction to yield NADPH which can be quantified flourimetrically (Lust and Seegmiller, Clin. Chim. Acta, 66:241–9 (1976)). Although each of these can be used in the assay, the latter protocol is used with described modifications as follows.
COS cells grown in DMEM supplemented with 10% fetal bovine serum, 2 mM GlutaMax (Gibco), 0.1 mM non-essential amino acids, 100 units/ml Penicillin G, and 100 μg/ml Streptomycin are harvested and ˜1–2×10^6 cells are plated on a 100 mm tissue culture dish and incubated overnight at 37° C., 5% CO2. […]

With “wild type ANK gene product: wild type ANK protein overexpressed in tissue culture cells; multiple-pass integral membrane protein of 492 amino acids” the extracellular pyrophosphate levels was “increase” and the intracellular pyrophosphate levels was “dramatic reduction”.
